Laboratory results: paper PMC3295651, “Delineation of the Pasteurellaceae-specific GbpA-family of glutathione-binding proteins” (BMC Biochemistry, 2011)

What was measured:
Assay in all cases: Thermofluor thermal shift (Sypro orange)
Type in all cases: binding
GbpAHi = target: T1, GbpAHi (Haemophilus influenzae, UniProt P33950)
T1 construct: gene hbpA; soluble non-lipidated form; leader replaced by PelB; his-tag
Source text: Thermofluor thermal shift (Sypro orange) on GbpAHi

hbpA = target: T2, hbpA (Actinobacillus pleuropneumoniae, UniProt A3N3U8, C22M); conditions: read-out: GbpAAp
T2 construct: soluble non-lipidated form; mature start at position 22; C-terminal his-tag; E. coli, pET20b
T2 sequence (A3N3U8 22-545 C22M): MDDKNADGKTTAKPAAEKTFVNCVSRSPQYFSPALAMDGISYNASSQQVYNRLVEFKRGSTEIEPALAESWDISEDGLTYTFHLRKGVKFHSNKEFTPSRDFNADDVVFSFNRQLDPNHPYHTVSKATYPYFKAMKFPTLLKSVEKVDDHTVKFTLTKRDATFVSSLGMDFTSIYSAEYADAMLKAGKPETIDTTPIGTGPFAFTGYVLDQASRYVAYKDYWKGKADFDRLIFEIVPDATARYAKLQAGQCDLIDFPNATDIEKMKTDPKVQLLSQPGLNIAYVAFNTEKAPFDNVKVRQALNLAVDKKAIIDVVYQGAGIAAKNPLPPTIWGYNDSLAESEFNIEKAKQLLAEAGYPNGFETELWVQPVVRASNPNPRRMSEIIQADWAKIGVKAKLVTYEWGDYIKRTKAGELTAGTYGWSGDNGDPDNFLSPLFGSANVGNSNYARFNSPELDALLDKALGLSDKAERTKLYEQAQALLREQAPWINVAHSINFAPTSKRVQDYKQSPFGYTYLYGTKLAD
Source text: Thermofluor thermal shift (Sypro orange) on GbpAAp

GbpAHp = target: T3, GbpAHp (Glaesserella parasuis, UniProt B8F653)
T3 construct: gene hbpA; non-lipoprotein; leader replaced by PelB; his-tag
T3 sequence (B8F653 23-531): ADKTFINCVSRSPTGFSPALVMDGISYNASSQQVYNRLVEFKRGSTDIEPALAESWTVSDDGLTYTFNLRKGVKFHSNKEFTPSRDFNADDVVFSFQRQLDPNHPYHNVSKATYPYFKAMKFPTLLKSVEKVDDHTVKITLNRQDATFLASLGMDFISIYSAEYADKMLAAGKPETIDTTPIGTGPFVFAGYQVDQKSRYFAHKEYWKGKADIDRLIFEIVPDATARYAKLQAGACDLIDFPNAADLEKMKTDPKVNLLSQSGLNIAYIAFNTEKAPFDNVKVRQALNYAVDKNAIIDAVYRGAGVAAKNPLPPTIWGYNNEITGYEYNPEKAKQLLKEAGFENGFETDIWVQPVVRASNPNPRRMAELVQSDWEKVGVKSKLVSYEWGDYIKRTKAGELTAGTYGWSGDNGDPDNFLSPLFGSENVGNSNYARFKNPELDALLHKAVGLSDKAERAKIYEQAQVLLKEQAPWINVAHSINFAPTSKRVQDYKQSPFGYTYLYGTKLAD
Source text: Thermofluor thermal shift (Sypro orange) on GbpAHp

T1 sequence (P33950 19-547): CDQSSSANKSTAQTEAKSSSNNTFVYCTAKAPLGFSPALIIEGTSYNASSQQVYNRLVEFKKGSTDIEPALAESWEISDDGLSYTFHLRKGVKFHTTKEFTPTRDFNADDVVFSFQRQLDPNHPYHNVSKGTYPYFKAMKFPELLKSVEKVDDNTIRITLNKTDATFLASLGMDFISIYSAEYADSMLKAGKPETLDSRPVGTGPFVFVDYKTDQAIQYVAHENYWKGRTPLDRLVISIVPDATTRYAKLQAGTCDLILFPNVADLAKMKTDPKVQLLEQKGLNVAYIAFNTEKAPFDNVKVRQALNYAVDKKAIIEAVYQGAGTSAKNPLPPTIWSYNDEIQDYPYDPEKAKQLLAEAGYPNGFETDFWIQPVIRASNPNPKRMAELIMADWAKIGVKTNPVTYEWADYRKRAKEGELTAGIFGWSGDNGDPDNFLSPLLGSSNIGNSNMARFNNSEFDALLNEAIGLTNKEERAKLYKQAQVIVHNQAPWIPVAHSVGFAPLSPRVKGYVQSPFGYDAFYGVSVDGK

Row | SMILES | ΔTm at 1000 µM (GbpAHi) [°C] | ΔTm at 1000 µM (hbpA) [°C] | ΔTm at 1000 µM (GbpAHp) [°C]
1 | N[C@@H](CCC(=O)N[C@@H](CS)C(=O)NCC(=O)O)C(=O)O [GSH] | 12.5 | – | –
2 | CSC[C@H](NC(=O)CC[C@H](N)C(=O)O)C(=O)NCC(=O)O [S-methylglutathione] | 10.5 | – | –
3 | N[C@@H](CCC(=O)N[C@@H](CSN=O)C(=O)NCC(=O)O)C(=O)O [S-nitrosoglutathione] | 7 | 6.5 | 9.5
4 | N[C@@H](CCC(=O)N[C@@H](CSSC[C@H](N)C(=O)O)C(=O)NCC(=O)O)C(=O)O [glutathione cysteine disulfide] | 10 | 6 | 7
